Source: article PMC6406907, “A H2AX–CARP-1 Interaction Regulates Apoptosis Signaling Following DNA Damage” (Cancers, 2019)
No end group written: not given here.

How the values were obtained:
MDA-MB-468 cells = conditions: 10 μM dose, ref [16]; cited from earlier work
Source text: Here, we utilized human TNBC MDA-MB-468 and human cervical cancer HeLa cells to conduct an MTT-based dose-response analysis using Adriamycin and CFM compounds. […] Since Adriamyci ...

γH2AX = test: Confocal immunofluorescence of γH2AX, HeLa; type: cell-based, human; conditions: HeLa expressing EGFP-H2AX (1–35) vs EGFP, Adriamycin-treated
Experimental: Cells were plated onto chamber slides one day before treatment. Following treatment of cells with respective compounds, the adherent cells were fixed with 5% formaldehyde for 10 min and then washed with phosphate buffered saline (PBS). Samples were blocked (0.5% NP-40, 5% milk powder, 1% fetal bovine serum) for 30 min. After a single wash with PBS, cells were incubated with primary antibodies for 45 to 60 min. Coverslips were washed with PBS and then incubated with secondary antibodies for another 45 to 60 min. They were then washed with PBS and mounted with 0.1 μg/mL 4′,6′-diamidino-2-phenylindole (DAPI) containing mounting solution. […]
Our next objective was to analyze the biological significance of the CARP-1–H2AX interaction in cells. […] Next, we measured activation of caspases as an apoptosis readout in cells expressing myc-His-tagged wild-type CARP-1 or CARP-1 (Δ600–650) proteins that were either untreated or treated with Adriamycin or CFM compounds as detailed in Section 2. We utilized a lower, 4–5 μM dose of Adriamycin or CFM compounds because a 10 μM Adriamycin dose caused interference in signal output/readout in this particular assay, likely due to background fluorescence that is emitted by higher dose of Adriamycin. […]

## O=C1N(Cc2ccccc2Cl)c2ccccc2C12NN=C(c1cccc(Cl)c1)S2 (centres unmarked) [CFM-4.16]
MDA-MB-468 cells
  inhibition of growth: robust inhibition of growth

## EGFP-H2AX (1–35): EGFP-tagged fusion protein stably expressed in MDA-MB-468 and HeLa sublines (MSGRGKTGGKARAKAKSRSSRAGLQFPVGRVHRLL; also: EGFP fusion, end not given here; UniProt P16104 1-35, looked up, fragment)
γH2AX
  nuclear presence of γH2AX: increased nuclear presence of γH2AX
